Data reported in the supplement of paper PMC7840683.
Where a name gives a salt, the structure may show the parent alone. ± gives the standard deviation of the averaged measurements.

Test system: HepaRG
Test: LDH release cytotoxicity, % of total lysis control; higher = more cytotoxic
Settings: 48 h
In short: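 Percent cytotoxicity was scaled between on-plate vehicle and total lysis controls, then averaged over duplicate wells. The cells were single-lot HepaRG on collagen I-coated 96-well plates, exposed for 48 h to eight-point half-log test chemical series topping at 100 µM in serum-free induction medium with 0.5% DMSO. Total lysis wells got 0.1% Triton X, and LDH in 50 µL spent medium was read as resorufin fluorescence (CytoTox-ONE, Tecan Safire).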

Row | SMILES | LDH release cytotoxicity (0.03162 µM) [%] | LDH release cytotoxicity (0.1 µM) [%] | LDH release cytotoxicity (0.3162278 µM) [%] | LDH release cytotoxicity (1 µM) [%] | LDH release cytotoxicity (3.16228 µM) [%] | LDH release cytotoxicity (10 µM) [%] | LDH release cytotoxicity (31.6228 µM) [%] | LDH release cytotoxicity (100 µM) [%] | LDH release cytotoxicity (0.031623 µM) [%] | LDH release cytotoxicity (0.316228 µM) [%] | LDH release cytotoxicity (0.0317809 µM) [%] | LDH release cytotoxicity (0.1005 µM) [%] | LDH release cytotoxicity (0.317809 µM) [%] | LDH release cytotoxicity (1.005 µM) [%] | LDH release cytotoxicity (3.17809 µM) [%] | LDH release cytotoxicity (10.05 µM) [%] | LDH release cytotoxicity (31.7809 µM) [%] | LDH release cytotoxicity (100.5 µM) [%]
1 | CN(C)C(=O)Nc1cccc(C(F)(F)F)c1 [Fluometuron] | -0.415 ± 0.25 | -0.308 ± 0.37 | -0.631 ± 0.97 | -0.564 ± 1.4 | -0.69 ± 0.18 | 0.366 ± 0.1 | -0.569 ± 0.084 | 0.377 ± 0.36 | – | – | – | – | – | – | – | – | – | –
2 | c1ccc2c(c1)-c1cccc3cccc-2c13 [Fluoranthene] | -1.36 ± 0.16 | -0.258 ± 0.61 | -0.857 ± 0.079 | -0.0961 ± 0.27 | -0.593 ± 0.16 | -0.226 ± 0.011 | -0.969 ± 0.3 | -2.77 ± 0.41 | – | – | – | – | – | – | – | – | – | –
3 | c1ccc2c(c1)Cc1ccccc1-2 [Fluorene] | -1.56 ± 0.24 | -1 ± 0.37 | -0.941 ± 0.29 | -0.74 ± 0.44 | -0.5867 ± 0.0032 | -1.05 ± 0.38 | -0.324 ± 0.11 | -0.2 ± 0.14 | – | – | – | – | – | – | – | – | – | –
4 | CON=C(C1=NOCCO1)c1ccccc1Oc1ncnc(Oc2ccccc2Cl)c1F [Fluoxastrobin] | -1.84 ± 0.41 | -1.61 ± 0.52 | -0.5866 ± 0.0016 | 0.517 ± 2.5 | -0.886 ± 0.77 | -0.0116 ± 2.9 | 13.1 ± 0.82 | 33.8 ± 4 | – | – | – | – | – | – | – | – | – | –
5 | CCCCCCC(C)OC(=O)COc1nc(F)c(Cl)c(N)c1Cl (centres undefined) [Fluroxypyr-meptyl] | – | -0.123 ± 1.8 | – | -0.348 ± 1.1 | -7.7 ± 0.78 | 8.36 ± 3.8 | -0.641 ± 0.61 | -0.963 ± 0.71 | 1.23 ± 0.18 | 0.191 ± 1 | – | – | – | – | – | – | – | –
6 | Nc1c(Cl)c(F)nc(OCC(=O)O)c1Cl [Fluroxypyr] | -0.285 ± 0.61 | -1.46 ± 1.1 | -1.77 ± 1 | -1.29 ± 0.69 | -1.07 ± 0.26 | -0.274 ± 0.24 | 0.368 ± 0.6 | 1.75 ± 0.91 | – | – | – | – | – | – | – | – | – | –
7 | C[Si](Cn1cncn1)(c1ccc(F)cc1)c1ccc(F)cc1 [Flusilazole] | -1.41 ± 1 | -1.68 ± 0.17 | -2.26 ± 0.57 | -1.24 ± 0.29 | -2.08 ± 0.094 | -1.2 ± 0.38 | 13.7 ± 1.9 | 42.5 ± 8.6 | – | – | – | – | – | – | – | – | – | –
8 | CC(C)C(=O)Nc1ccc([N+](=O)[O-])c(C(F)(F)F)c1 [Flutamide] | -0.977 ± 0.81 | -1.06 ± 0.19 | -1.63 ± 1.3 | -1.92 ± 1.5 | -1.23 ± 0.22 | 0.0752 ± 0.3 | 2.14 ± 1.3 | 13.6 ± 7.4 | – | – | – | – | – | – | – | – | – | –
9 | COC(=O)CSc1cc(N=c2sc(=O)n3n2CCCC3)c(F)cc1Cl [Fluthiacet-methyl] | -1.78 ± 1.1 | -2.67 ± 1 | -1.91 ± 1 | -1.73 ± 0.018 | -1.61 ± 0.37 | -1.57 ± 0.3 | -0.786 ± 0.091 | 0.903 ± 0.25 | – | – | – | – | – | – | – | – | – | –
10 | CC(C)Oc1cccc(NC(=O)c2ccccc2C(F)(F)F)c1 [Flutolanil] | – | -2.54 ± 0.44 | – | -2.18 ± 0.77 | -1.81 ± 1.2 | -1.86 ± 0.057 | -0.343 ± 0.59 | 3.01 ± 0.1 | -1.37 ± 1.1 | -3.14 ± 0.46 | – | – | – | – | – | – | – | –
11 | Nc1nc(=O)c2nc(CNc3ccc(C(=O)NC(CCC(=O)O)C(=O)O)cc3)cnc2[nH]1 (centres undefined) [Folic acid] | -0.0941 ± 0.85 | -1.11 ± 0.044 | -1.22 ± 0.067 | -1.1 ± 0.086 | -0.966 ± 0.064 | -0.672 ± 0.085 | -0.33 ± 0.12 | 1.64 ± 0.3 | – | – | – | – | – | – | – | – | – | –
12 | O=C1c2ccccc2C(=O)N1SC(Cl)(Cl)Cl [Folpet] | – | -2.6 ± 0.32 | – | -1.65 ± 1.3 | -1.73 ± 0.14 | -1.49 ± 0.98 | -0.653 ± 0.48 | -0.43 ± 1.1 | 0.571 ± 0.94 | -1.27 ± 0.63 | – | – | – | – | – | – | – | –
13 | CS(=O)(=O)NC(=O)c1cc(Oc2ccc(C(F)(F)F)cc2Cl)ccc1[N+](=O)[O-] [Fomesafen] | -1.12 ± 1.1 | -1.48 ± 0.59 | 0.3 ± 0.32 | -0.63 ± 0.72 | -0.773 ± 0.02 | 0.708 ± 0.54 | 0.985 ± 0.17 | 3.41 ± 0.9 | – | – | – | – | – | – | – | – | – | –
14 | O=C(Nc1ccccc1)Nc1ccnc(Cl)c1 [Forchlorfenuron] | -0.561 ± 0.058 | -0.953 ± 0.64 | -0.719 ± 0.22 | -0.995 ± 0.79 | -0.25 ± 0.84 | -0.369 ± 0.16 | 6.54 ± 0.27 | 61.5 ± 5.7 | – | – | – | – | – | – | – | – | – | –
15 | NC=O [Formamide] | -0.907 ± 0.53 | -1.37 ± 0.46 | -0.701 ± 1.2 | -1.62 ± 1.2 | -1.72 ± 0.14 | -1.47 ± 1.5 | -0.537 ± 0.33 | 0.4 ± 1.3 | – | – | – | – | – | – | – | – | – | –
16 | CNC(=O)Oc1cccc(N=CN(C)C)c1 [Formetanate hydrochloride] | – | – | – | – | – | – | – | – | – | – | -8.9 ± 1.2 | -7.63 ± 0.9 | -7.59 ± 0.12 | -7.51 ± 1 | -6.9 ± 0.096 | -5.88 ± 0.74 | -6.15 ± 0.89 | -5.62 ± 1.4
17 | CCOP(=O)(SC(C)CC)N1CCSC1=O (centres undefined) [Fosthiazate] | -0.419 ± 0.44 | -0.335 ± 0.79 | -0.582 ± 0.46 | -0.0276 ± 1 | -0.262 ± 0.11 | -0.389 ± 0.35 | -0.432 ± 0.8 | 0.843 ± 0.36 | – | – | – | – | – | – | – | – | – | –
18 | CC12CCC3c4ccc(O)cc4CC(CCCCCCCCCS(=O)CCCC(F)(F)C(F)(F)F)C3C1CCC2O (centres undefined) [Fulvestrant] | -1.87 ± 0.22 | -1.62 ± 0.93 | -0.633 ± 0.4 | -1.01 ± 0.37 | -1.1 ± 0.47 | -0.0401 ± 1.7 | -3.17 ± 0.35 | 3.92 ± 6.4 | – | – | – | – | – | – | – | – | – | –
